Values quoted from earlier work, collected in paper PMC4411882, “Developmental Potential for Endomorphin Opioidmimetic Drugs” (International Journal of Medicinal Chemistry, 2012).
Where a SMILES comes first, the peptide text is derived from it. [ ]: non-standard residue; d: D form. Dmt = Cc1cc(O)cc(C)c1C[C@H](N)C(=O)O

Key:
μ-opioid receptor (GPI) = molecular target: T1, μ-opioid receptor (GPI) (Cavia porcellus, UniProt P97266); set-up: species or system guinea pig ileum
T1 construct: gene OPRM1; guinea pig ileum (GPI) bioassay
T1 sequence (P97266 whole entry): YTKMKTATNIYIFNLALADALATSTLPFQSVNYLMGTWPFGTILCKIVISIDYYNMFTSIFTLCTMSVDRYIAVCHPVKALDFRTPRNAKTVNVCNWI
From the text: (§1) Therefore, we substituted hydrophobic groups in lieu of the phenethyl group to develop the class of H-Dmt-Pro-Phe-NH-X ligands (Figure 1).

δ-opioid receptor (MVD) = molecular target: T2, δ-opioid receptor (MVD) (Mus musculus, UniProt P32300); set-up: species or system mouse vas deferens
T2 construct: gene Oprd1; mouse vas deferens (MVD) bioassay
T2 sequence (P32300 whole entry): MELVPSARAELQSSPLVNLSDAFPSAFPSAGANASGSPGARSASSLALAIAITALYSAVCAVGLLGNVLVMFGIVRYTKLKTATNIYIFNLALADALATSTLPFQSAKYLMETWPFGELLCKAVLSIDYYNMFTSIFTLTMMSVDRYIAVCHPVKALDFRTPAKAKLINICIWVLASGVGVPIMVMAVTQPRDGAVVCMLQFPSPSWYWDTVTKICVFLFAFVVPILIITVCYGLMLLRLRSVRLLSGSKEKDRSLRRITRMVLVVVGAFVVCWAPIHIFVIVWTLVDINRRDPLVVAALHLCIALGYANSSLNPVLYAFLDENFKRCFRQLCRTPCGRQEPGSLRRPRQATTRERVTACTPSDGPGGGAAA
From the text: as §1

μ-opioid receptor = μ-opioid receptor (Rattus norvegicus, UniProt P33535); set-up: gene Oprm1; rat brain P2 synaptosomal preparations; species or system rat brain P2 synaptosomal preparations; settings: read-out: Kiμ
Chain of μ-opioid receptor (P33535 whole entry): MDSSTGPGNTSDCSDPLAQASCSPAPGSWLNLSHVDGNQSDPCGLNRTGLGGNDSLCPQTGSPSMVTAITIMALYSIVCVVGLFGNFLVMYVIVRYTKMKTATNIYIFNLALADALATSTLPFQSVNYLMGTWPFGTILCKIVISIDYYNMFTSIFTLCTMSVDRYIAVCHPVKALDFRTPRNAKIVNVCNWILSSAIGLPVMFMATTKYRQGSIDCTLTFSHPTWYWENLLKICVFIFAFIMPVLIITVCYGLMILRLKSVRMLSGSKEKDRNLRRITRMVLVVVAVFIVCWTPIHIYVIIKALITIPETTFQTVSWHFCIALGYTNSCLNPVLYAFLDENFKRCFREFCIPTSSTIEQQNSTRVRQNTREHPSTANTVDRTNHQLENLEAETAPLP

δ-opioid receptor = δ-opioid receptor (Rattus norvegicus, UniProt P33533); set-up: gene Oprd1; rat brain P2 synaptosomal preparations; species or system rat brain P2 synaptosomal preparations; settings: read-out: Kiδ
Chain of δ-opioid receptor (P33533 whole entry): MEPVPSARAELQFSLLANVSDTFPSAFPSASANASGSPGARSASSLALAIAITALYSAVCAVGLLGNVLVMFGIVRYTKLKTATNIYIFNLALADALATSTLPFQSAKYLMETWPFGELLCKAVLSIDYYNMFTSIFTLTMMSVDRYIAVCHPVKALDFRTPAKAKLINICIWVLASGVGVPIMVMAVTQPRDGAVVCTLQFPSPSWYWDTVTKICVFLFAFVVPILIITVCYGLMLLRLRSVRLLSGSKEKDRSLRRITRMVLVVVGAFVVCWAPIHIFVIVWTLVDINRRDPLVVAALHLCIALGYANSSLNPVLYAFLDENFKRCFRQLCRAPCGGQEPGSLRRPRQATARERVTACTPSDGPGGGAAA

Compound | IC50 (μ-opioid receptor (GPI)) [nM] | IC50 (δ-opioid receptor (MVD)) [nM] | Ki (μ-opioid receptor) [nM] | Ki (δ-opioid receptor) [nM]
Cc1cc(O)cc(C(C)C)c1C[C@H](N)C(=O)N1CCC[C@H]1C(=O)N[C@@H](Cc1ccccc1)C(=O)N[C@@H](Cc1ccccc1)C(N)=O [compound 36, H-Imt-Pro-Phe-Phe-NH2] | 10.6 | 601 | 0.15 | 190
CCc1cc(O)cc(CC)c1C[C@H](N)C(=O)N1CCC[C@H]1C(=O)N[C@@H](Cc1ccccc1)C(=O)N[C@@H](Cc1ccccc1)C(N)=O [compound 37, H-Det-Pro-Phe-Phe-NH2] | 0.903 | 47.1 | 0.084 | 69.7
Cc1cc(C)cc(C[C@H](NC(=O)[C@@H]2CCCN2C(=O)[C@@H](N)Cc2c(C)cc(O)cc2C)C(=O)N[C@@H](Cc2ccccc2)C(N)=O)c1 [compound 41, H-Dmt-Pro-^3,5Dmp-Phe-NH2] | 14.4 | > 10000 | 0.11 | 11.6
Cc1cccc(C)c1C[C@H](NC(=O)[C@@H]1CCCN1C(=O)[C@@H](N)Cc1c(C)cc(O)cc1C)C(=O)N[C@@H](Cc1ccccc1)C(N)=O [compound 42, H-Dmt-Pro-Dmp-Phe-NH2] | 0.12 | > 10000 | 0.069 | 2.27
Cc1cc(O)cc(C)c1C[C@H](NC(=O)[C@@H]1CCCN1C(=O)[C@@H](N)Cc1c(C)cc(O)cc1C)C(=O)N[C@@H](Cc1ccccc1)C(N)=O [compound 43, H-Dmt-Pro-Dmt-Phe-NH2] (H-[Dmt]P[Dmt]F-NH2) | 1.94 | > 10000 | 0.092 | 80.8
CCc1cccc(C)c1CC(NC(=O)C1CCCN1C(=O)C(N)Cc1c(C)cc(O)cc1C)C(=O)NC(Cc1ccccc1)C(N)=O (stereo not drawn) [compound 45, H-Dmt-Pro-Emp-Phe-NH2] | 0.17 | 0.51 | 0.21 | 3.03
Cc1cc(O)cc(C)c1C[C@H](N)C(=O)N1CCC[C@H]1C(=O)N[C@@H](Cc1c(C)cccc1C(C)C)C(=O)N[C@@H](Cc1ccccc1)C(N)=O [compound 46, H-Dmt-Pro-Imp-Phe-NH2] | 0.2 | 5.56 | 0.32 | 4.61
C=CCN[C@@H](Cc1c(C)cc(O)cc1C)C(=O)N1CCC[C@H]1C(=O)N[C@@H](Cc1c[nH]c2ccccc12)C(=O)N[C@@H](Cc1ccccc1)C(N)=O [compound 47, [N-allyl-Dmt^1]EM-1] | > 10000 | > 10000 | 0.26 | 10.3
C=CCN[C@@H](Cc1c(C)cc(O)cc1C)C(=O)N1CCC[C@H]1C(=O)N[C@@H](Cc1ccccc1)C(=O)N[C@@H](Cc1ccccc1)C(N)=O [compound 48, [N-allyl-Dmt^1]EM-2] | > 10000 | > 10000 | 0.45 | 560
C=CCNC(Cc1c(C)cc(O)cc1C)C(=O)NCCCCCCNC(=O)C(Cc1c(C)cc(O)cc1C)NCC=C (centres unmarked) [compound 49, 1,6-bis[N-allyl-Dmt-NH]hexane] | > 10000 | > 10000 | 12.4 | 51.5
C=CCNC(Cc1c(C)cc(O)cc1C)C(=O)NCCCc1[nH]c(=O)c(CCCNC(=O)C(Cc2c(C)cc(O)cc2C)NCC=C)nc1C (centres unmarked) [compound 50, 3,6-bis[N-allyl-Dmt-NH-propyl]-5-methyl-2(1H)-pyrazinone] | > 10000 | > 10000 | 6.94 | 77.8
Cc1cc(O)cc(C)c1C[C@H](N)C(=O)NCCNC(=O)[C@@H](N)Cc1c(C)cc(O)cc1C [compound 51, Dmt-NH-(CH2)2-NH-Dmt] | 2840 | > 10000 | 1.43 | 116
Cc1cc(O)cc(C)c1C[C@H](N)C(=O)NCCCCNC(=O)[C@@H](N)Cc1c(C)cc(O)cc1C [compound 52, Dmt-NH-(CH2)4-NH-Dmt] | 5.33 | > 10000 | 0.041 | 53.4
Cc1cc(O)cc(C)c1C[C@H](N)C(=O)NCCCCCCNC(=O)[C@@H](N)Cc1c(C)cc(O)cc1C [compound 53, Dmt-NH-(CH2)6-NH-Dmt] | 3.08 | > 10000 | 0.053 | 46.1
Cc1cc(O)cc(C)c1CC(N)C(=O)NCCc1[nH]c(=O)c(CCNC(=O)C(N)Cc2c(C)cc(O)cc2C)nc1C (centres unmarked) [compound 56, 3,6-bis[Dmt-NH(CH2)2]-5-methyl-2(1H)-pyrazinone] | 12.9 | > 10000 |  | 7.26
Cc1cc(O)cc(C)c1C[C@H](N)C(=O)N1Cc2ccccc2C[C@H]1C(=O)NCCCCCCNC(=O)[C@@H]1Cc2ccccc2CN1C(=O)[C@@H](N)Cc1c(C)cc(O)cc1C [compound 67, bis[Dmt-Tic-NH]hexane] |  | > 10000 | 1.79 | 0.129
H-Dmt-Pro-Phe-NH-4-Pyr [compound 25] | 11.8 | > 10000 |  | 52.6
